One experiment concerns K562 cell line. The experiment in a line: MTT test of structural analogues of harringtonines on K562 cell line. In kind it is cell-based. As for the experimental part:
(§1) Structural analogues of harringtonines described in this invention were tested on K562 cell line, derived from chronic myeloid leukemia cells in blastic transformation (bcr-abl positive). The cell line was purchased from ATCC (American Tissue Culture Collection) and grown in RPMI medium supplemented with 10% heat-inactivated fetal calf serum, 2 mmol/L glutamine, […] penicillin and […] streptomycin. All tested products were initially dissolved in […] (pH=2), supplemented with ultrasound treatment during 1 h. Working concentrations were made by dilution in culture medium (pH around 7). Cells in exponential growth phase were placed into 96-microwell plates in concentration 3×10^4/mL (total volume 200 μL/well) and incubated with drugs for 72 h at 37° C. in 5% CO2 humidified atmosphere. Following incubation, 2 μL of MTT solution (Sigma, St. Louis, Mo.) was added to each well. During the following 6 h of incubation at 37° C., the purple formazan product was formed by conversion of the yellow MTT salt in the mitochondria of the viable cells. The resulting precipitate was dissolved in DMSO and the amount of converted MTT was quantified in an ELISA reader (MR 5000, Dynatech). Each product was tested in triplicate (3×8 wells). Every test contained at least one plate with HHT as control, added in the same concentration as the tested products.
On the technique in general: Formazan colour is commonly taken as a measure of viable cells.

For the next experiment, the system named is K562MRP. The experiment in a line: MTT test on K562MRP, homoharringtonine-resistant subline of K562. The following applies: K562MRP subline resistant to 50 ng/mL homoharringtonine, same method as K562. In kind it is cell-based. As for the experimental part: as §1
The mark [1] stands for this setting: K562 cell line, 72 h incubation, MTT.
The mark [2] stands for this setting: Homo sapiens, K562 cell line, 72 h incubation, MTT, read-out: IC50.

For 31 molecules, IC50 results are on record in US7285546B2, “Cephalotaxanes, their method of preparation and their use in treatment of cancers, leukemias, parasites including those resistant to usual chemotherapeutic agents and as reversal agents” (Stragen Pharma S.A., priority 2000, dated 2007).

In brackets after ≈: the same amount, converted by molar mass. Read-outs that look alike come from different tables or passages of the source.

A word on the IC50: it is the concentration at which inhibition is half-maximal. With `CC=CC=CCOC(=O)C[C@](O)(CCCC(C)(C)O)C(=O)O[C@@H]1C(OC)=C[C@]23CCCN2CCc2cc4c(cc2[C@H]13)OCO4` [Example 43, (2′R)-4′-(hexa-2,4-dienyl)-4′-demethyl-homoharringtonine], the half-inhibitory concentration (IC50) in the experiment on K562 cell line (setting [1]) was found to be 0.0035 µg/mL (≈ 0.00572 µM); with K562MRP, 0.016 µg/mL (≈ 0.0262 µM).
For the molecule `CC=CCOC(=O)C[C@](O)(CCCC(C)(C)O)C(=O)O[C@@H]1C(OC)=C[C@]23CCCN2CCc2cc4c(cc2[C@H]13)OCO4` [Example 37, (2′R)-4′-(but-2-enyl)-4′-demethyl-homoharringtonine], the IC50 with K562 cell line (setting [1]) is 0.0125 µg/mL (≈ 0.0213 µM).
In the experiment with K562 cell line (Homo sapiens, K562, 72 h), `COC1=C[C@]23CCCN2CCc2cc4c(cc2[C@@H]3C1OC(=O)[C@@](O)(CCCC(C)(C)O)CC(=O)OC(C)C)OCO4` (stereo partly drawn) [Example 27, (2′R)-4′-isopropyl-4′-demethyl-homoharringtonine] came in with an IC50 of 0.08 µg/mL (≈ 0.139 µM).
Still for that read-out and setting: the figure for `COC1=C[C@@]23CCCN2CCc2cc4c(cc2[C@@H]3C1OC(=O)[C@@](O)(CCCC(C)(C)O)CC(=O)SC(C)C)OCO4` (stereo partly drawn) [Example 34, (2′R)-4′-isopropylthio-4′-demethoxy-homoharringtonine] is 0.05 µg/mL (≈ 0.0848 µM).
Same read-out and setting: then `C=CCOC(=O)C[C@](O)(CCCC(C)(C)O)C(=O)OC1C(OC)=C[C@@]23CCCN2CCc2cc4c(cc2[C@H]13)OCO4` (stereo partly drawn) [Example 40, (2′R)-4′-(2-propenyl)-4′-demethyl-homoharringtonine], with 0.0145 µg/mL (≈ 0.0254 µM); and `COC1=C[C@@]23CCCN2CCc2cc4c(cc2[C@@H]3C1OC(=O)[C@@](O)(CCCC(C)(C)O)CC(=O)OCCOCc1ccccc1)OCO4` (stereo partly drawn) [Example 80, (2′R)-4′-(2-benzyloxyethoxy)-4′-demethyl-homoharringtonine], with 0.025 µg/mL (≈ 0.0375 µM).
On the same count and under the same terms, then `CCSC(=O)C[C@](O)(CCCC(C)(C)O)C(=O)OC1C(OC)=C[C@@]23CCCN2CCc2cc4c(cc2[C@H]13)OCO4` (stereo partly drawn) [Example 32, (2′R)-4′-ethylthio-4′-demethoxy-homoharringtonine], with 0.08 µg/mL (≈ 0.139 µM).
In the experiment with K562 cell line (setting [1]), `CC=CCCCOC(=O)C[C@](O)(CCCC(C)(C)O)C(=O)O[C@@H]1C(OC)=C[C@]23CCCN2CCc2cc4c(cc2[C@H]13)OCO4` [Example 53, (2′R)-4′-(hex-4-enyl)-4′-demethyl-homoharringtonine] had a 50% inhibitory concentration (IC50) of 0.0085 µg/mL (≈ 0.0138 µM).
Molecule `CCCCCCOC(=O)C[C@](O)(CCCC(C)(C)O)C(=O)OC1C(OC)=C[C@@]23CCCN2CCc2cc4c(cc2[C@H]13)OCO4` (stereo partly drawn) [Example 54, (2′R)-4′-hexyl-4′-demethyl-homoharringtonine] gave a concentration for half-maximal inhibition (IC50) in the experiment with K562 cell line (Homo sapiens, K562, 72 h) of 0.005 µg/mL (≈ 0.00812 µM).
With `CCC(C)COC(=O)C[C@](O)(CCCC(C)(C)O)C(=O)OC1C(OC)=C[C@@]23CCCN2CCc2cc4c(cc2[C@H]13)OCO4` (stereo partly drawn) [Example 69, (2′R)-4′-(methyl-2-butyl)-4′-demethyl-homoharringtonine], in the experiment with K562 cell line (Homo sapiens, K562, 72 h), the concentration for half-maximal inhibition (IC50) was found to be 0.029 µg/mL (≈ 0.0482 µM).
On the same count and under the same terms, the figure for `COC(=O)C[C@](O)(CCC(C)(C)F)C(=O)OC1C(OC)=C[C@@]23CCCN2CCc2cc4c(cc2[C@H]13)OCO4` (stereo partly drawn) [Example 59, (2′R)-3″-Fluoro-3″-deoxy-harringtonine] is 0.0135 µg/mL (≈ 0.0253 µM); for `COC1=C[C@@]23CCCN2CCc2cc4c(cc2[C@@H]3C1OC(=O)[C@@](O)(CCCC(C)(C)O)CC(=O)OCC(C)C)OCO4` (stereo partly drawn) [Example 52, (2′R)-4′-isobutyl-4′-demethyl-homoharringtonine] it is 0.024 µg/mL (≈ 0.0408 µM).
Still for that read-out and setting: then `COC1=C[C@@]23CCCN2CCc2cc4c(cc2[C@@H]3C1OC(=O)[C@@](O)(CCCC(C)(C)O)CC(=O)OCc1cccc(C)c1)OCO4` (stereo partly drawn) [Example 73, (2′R)-4′-m-methylbenzyl-4′-demethyl-homoharringtonine], with 0.004 µg/mL (≈ 0.00629 µM); and `COC(=O)C[C@](O)(CCC=C(C)C)C(=O)OC1C(OC)=C[C@@]23CCCN2CCc2cc4c(cc2[C@H]13)OCO4` (stereo partly drawn) [Example 61, 4-methyl (2R)-2-hydroxy-2-(4-methyl-pent-3-enyl)succinate of (−)-cephalotaxine], with 0.0175 µg/mL (≈ 0.0332 µM).
Turning to `COC1=C[C@@]23CCCN2CCc2cc4c(cc2[C@@H]3C1OC(=O)[C@@](O)(CCCC(C)(C)O)CC(=O)SC)OCO4` (stereo partly drawn) [Example 30, (2′R)-4′-methylthio-4′-demethoxy-homoharringtonine], the 50% inhibitory concentration (IC50) with K562 cell line (Homo sapiens, K562, 72 h) was determined as 0.05 µg/mL (≈ 0.089 µM).
`COC1=C[C@@]23CCCN2CCc2cc4c(cc2[C@@H]3C1OC(=O)[C@@](O)(CCCC(C)(C)O)CC(=O)OCc1ccccc1OC)OCO4` (stereo partly drawn) [Example 90, (2′R)-4′-o-methoxybenzyloxy-4′-demethyl-homoharringtonine] displayed a half-maximal inhibitory concentration (IC50) in the experiment with K562 cell line (Homo sapiens, K562, 72 h) of 0.027 µg/mL (≈ 0.0414 µM).
On the same count and under the same terms, the figure for `COC1=C[C@@]23CCCN2CCc2cc4c(cc2[C@@H]3C1OC(=O)[C@@](O)(CCCC(C)(C)O)CC(=O)Oc1ccccc1)OCO4` (stereo partly drawn) [Example 79, (2′R)-4′-phenoxy-4′-demethylhomoharringtonine] is 0.01 µg/mL (≈ 0.0165 µM); for `COC1=C[C@@]23CCCN2CCc2cc4c(cc2[C@@H]3C1OC(=O)[C@@](O)(CCCC(C)(C)O)CC(=O)OCc1ccc(OC)cc1)OCO4` (stereo partly drawn) [Example 86, (2′R)-4′-p-methoxybenzyloxy-4′-demethyl-homoharringtonine] it is 0.02 µg/mL (≈ 0.0307 µM).
On the same count and under the same terms, then `COC1=C[C@@]23CCCN2CCc2cc4c(cc2[C@@H]3C1OC(=O)[C@@](O)(CCCC(C)(C)O)CC(=O)OCc1ccc(C)cc1)OCO4` (stereo partly drawn) [Example 72, (2′R)-4′-p-methylbenzyl-4′-demethyl-homoharringtonine], with 0.006 µg/mL (≈ 0.00944 µM).
For `COC(=O)C[C@](O)(CCCC(C)(C)O)C(=O)O[C@@H]1C(OC)=C[C@]23CCCN2CCc2cc4c(cc2[C@H]13)OCO4` [HOMOHARRINGTONINE, homoharringtonine, reference compound], the half-maximal inhibitory concentration (IC50) in the experiment on K562 cell line (setting [2]) is 0.014 µg/mL (≈ 0.0257 µM).
`CCOC(=O)C[C@](O)(CCCC(C)(C)O)C(=O)OC1C(OC)=C[C@@]23CCCN2CCc2cc4c(cc2[C@H]13)OCO4` (stereo partly drawn) [Example 25, (2′R)-4′-ethyl-4′-demethyl-homoharringtonine] showed an IC50 in the experiment on K562 cell line (Homo sapiens, K562, 72 h) of 0.041 µg/mL (≈ 0.0733 µM).
On the same count and under the same terms, the figure for `COC1=C[C@@]23CCCN2CCc2cc4c(cc2[C@@H]3C1OC(=O)[C@@](O)(CCCC(C)(C)O)CC(=O)OCc1cccc2ccccc12)OCO4` (stereo partly drawn) [Example 81, (2′R)-4′-(1-naphtalenemethoxy)-4′-demethyl-homoharringtonine] is 0.008 µg/mL (≈ 0.0119 µM).
As for `[2H]C([2H])OC(=O)C[C@](O)(CCCC(C)(C)O)C(=O)OC1C(OC)=C[C@@]23CCCN2CCc2cc4c(cc2[C@H]13)OCO4` (stereo partly drawn) [Example 87, (2′R)-(4′-^2H2)homoharringtonine], the IC50 in the experiment with K562 cell line (setting [2]) is 0.021 µg/mL (≈ 0.0383 µM).
Molecule `CCCOC(=O)C[C@](O)(CCCC(C)(C)O)C(=O)OC1C(OC)=C[C@@]23CCCN2CCc2cc4c(cc2[C@H]13)OCO4` (stereo partly drawn) [Example 51, (2′R)-4′-propyl-4′-demethyl-homoharringtonine] registered a concentration for half-maximal inhibition (IC50) with K562 cell line (Homo sapiens, K562, 72 h) of 0.0225 µg/mL (≈ 0.0392 µM).
Molecule `COCCOC(=O)C[C@](O)(CCCC(C)(C)O)C(=O)OC1C(OC)=C[C@@]23CCCN2CCc2cc4c(cc2[C@H]13)OCO4` (stereo partly drawn) [Example 78, (2′R)-4′-(2-methoxyethoxy)-4′-demethyl-homoharringtonine] yielded a concentration for half-maximal inhibition (IC50) in the experiment with K562 cell line (Homo sapiens, K562, 72 h) of 0.012 µg/mL (≈ 0.0203 µM).
Still for that read-out and setting: then `CCCCCCCOC(=O)C[C@](O)(CCCC(C)(C)O)C(=O)OC1C(OC)=C[C@@]23CCCN2CCc2cc4c(cc2[C@H]13)OCO4` (stereo partly drawn) [Example 66, (2′R)-4′-heptyl-4′-demethyl-homoharringtonine], with 0.003 µg/mL (≈ 0.00476 µM).
`[2H]C([2H])([2H])OC(=O)C[C@](O)(CCCC(C)(C)O)C(=O)OC1C(OC)=C[C@@]23CCCN2CCc2cc4c(cc2[C@H]13)OCO4` (stereo partly drawn) [Example 75, (2′R)-(4′-^2H3)homoharringtonine]: in the experiment on K562 cell line (setting [2]), the IC50 came to 0.025 µg/mL (≈ 0.0456 µM).
In the experiment with K562 cell line (Homo sapiens, K562, 72 h), `COC(=O)C[C@](O)(CCC(C)(C)O)C(=O)O[C@@H]1C(OC)=C[C@]23CCCN2CCc2cc4c(cc2[C@H]13)OCO4` [HARRINGTONINE (HHT), harringtonine, reference compound] came in with a half-maximal inhibitory concentration (IC50) of 0.03 µg/mL (≈ 0.0564 µM).
The same measure, in the same setting: then `COC1=C[C@@]23CCCN2CCc2cc4c(cc2[C@@H]3C1OC(=O)[C@@](O)(CCCC(C)(C)O)CC(=O)OCc1ccc([N+](=O)[O-])cc1)OCO4` (stereo partly drawn) [Example 85, (2′R)-4′-p-nitrobenzyloxy-4′-demethyl-homoharringtonine], with 0.018 µg/mL (≈ 0.027 µM).
`[2H]COC(=O)C[C@](O)(CCCC(C)(C)O)C(=O)OC1C(OC)=C[C@@]23CCCN2CCc2cc4c(cc2[C@H]13)OCO4` (stereo partly drawn) [Example 76, (2′R)-(4′-^2H)homoharringtonine]: in the experiment with K562 cell line (setting [2]), the IC50 was found to be 0.018 µg/mL (≈ 0.0329 µM).
As for `CCCCCCCCOC(=O)C[C@](O)(CCCC(C)(C)O)C(=O)OC1C(OC)=C[C@@]23CCCN2CCc2cc4c(cc2[C@H]13)OCO4` (stereo partly drawn) [Example 67, (2′R)-4′-octyl-4′-demethyl-homoharringtonine], the concentration for half-maximal inhibition (IC50) with K562 cell line (Homo sapiens, K562, 72 h) stood at 0.009 µg/mL (≈ 0.014 µM).
